Data taken from the NIST ThermoML archive (doi:10.1021/je034290l).

Tests used:
[1] = Liquid; for mass density: 101.33 kPa
[2] = refractive index (Na D-line) (dimensionless); settings: 101.33 kPa, Liquid, Standard Abbe refractometry

COC(C)=O [methyl ethanoate]
Settings | mass density [kg/m3] | refractive index | vapor or sublimation pressure [kPa]
[1], 305.21 K | – | – | 39.85
[1], 305.85 K | – | – | 41.28
[1], 306.84 K | – | – | 42.46
[1], 307.84 K | – | – | 44.04
[1], 308.13 K | – | – | 45.37
[1], 308.75 K | – | – | 46.97
[1], 309.72 K | – | – | 48.14
[1], 310.17 K | – | – | 49.41
[1], 311.19 K | – | – | 50.42
[1], 311.59 K | – | – | 51.81
[1], 312.76 K | – | – | 53.53
[1], 313.38 K | – | – | 54.58
[1], 313.74 K | – | – | 55.9
[1], 314.18 K | – | – | 57.49
[1], 314.88 K | – | – | 58.59
[1], 315.56 K | – | – | 60.05
[1], 316.06 K | – | – | 61.43
[1], 316.57 K | – | – | 62.5
[1], 317.05 K | – | – | 63.9
[1], 318.15 K | 900.19 | – | –
[1], 318.34 K | – | – | 66.51
[1], 318.69 K | – | – | 67.81
[1], 319.37 K | – | – | 69.23
[1], 319.93 K | – | – | 70.45
[1], 320.11 K | – | – | 71.01
[1], 320.34 K | – | – | 71.9
[1], 320.65 K | – | – | 73.35
[1], 321.34 K | – | – | 74.58
[1], 321.46 K | – | – | 75.27
[1], 321.72 K | – | – | 76.13
[1], 322.07 K | – | – | 77.22
[1], 322.36 K | – | – | 77.87
[1], 322.62 K | – | – | 78.83
[1], 323.07 K | – | – | 80.15
[1], 323.49 K | – | – | 81.23
[1], 324.29 K | – | – | 82.59
[1], 324.58 K | – | – | 83.84
[1], 324.95 K | – | – | 85.23
[1], 325.33 K | – | – | 86.76
[1], 325.71 K | – | – | 87.86
[1], 326.25 K | – | – | 89.23
[1], 326.63 K | – | – | 90.98
[1], 327.08 K | – | – | 92.06
[1], 327.54 K | – | – | 93.46
[1], 328 K | – | – | 94.82
[1], 328.17 K | – | – | 96.1
[1], 328.96 K | – | – | 97.67
[1], 329.38 K | – | – | 99.14
[1], 329.55 K | – | – | 100.18
[1], 329.86 K | – | – | 101.32
[1], 330.09 K | – | – | 102.6
[1], 330.43 K | – | – | 104.14
[1], 330.97 K | – | – | 105.19
[1], 331.43 K | – | – | 106.75
[1], 331.76 K | – | – | 107.92
[1], 332.06 K | – | – | 109.42
[1], 332.52 K | – | – | 110.71
[1], 332.77 K | – | – | 112.16
[1], 333.1 K | – | – | 113.39
[1], 333.6 K | – | – | 114.47
[1], 333.94 K | – | – | 115.87
[1], 334.06 K | – | – | 117.43
[1], 334.27 K | – | – | 118.52
[1], 334.73 K | – | – | 120.12
[1], 335.06 K | – | – | 121.46
[1], 335.23 K | – | – | 122.57
[1], 335.73 K | – | – | 123.95
[1], 336.07 K | – | – | 125.35
[1], 336.48 K | – | – | 126.88
[1], 336.86 K | – | – | 127.85
[1], 337.19 K | – | – | 129.37
[1], 337.53 K | – | – | 130.87
[1], 337.78 K | – | – | 131.93
[1], 337.9 K | – | – | 133.48
[1], 338.15 K | – | – | 134.72
[1], 338.66 K | – | – | 136.16
[1], 338.82 K | – | – | 137.37
[1], 339.07 K | – | – | 138.56
[1], 339.41 K | – | – | 140.07
[1], 339.66 K | – | – | 141.45
[1], 339.95 K | – | – | 142.53
[1], 340.33 K | – | – | 144.04
[1], 340.49 K | – | – | 145.51
[1], 340.95 K | – | – | 146.43
[1], 341.08 K | – | – | 147.88
[1], 341.45 K | – | – | 149.13
[1], 341.79 K | – | – | 150.58
[1], 342 K | – | – | 151.93
[1], 342.37 K | – | – | 153.34
[1], 342.46 K | – | – | 154.61
[1], 342.85 K | – | – | 155.92
[1], 343.21 K | – | – | 157.52
[1], 343.36 K | – | – | 158.57
[1], 343.46 K | – | – | 160.01
[1], 343.67 K | – | – | 161.1
[1], 344.09 K | – | – | 162.7
[1], 344.46 K | – | – | 164.2
[1], 344.67 K | – | – | 165.28
[1], 344.88 K | – | – | 166.78
[1], 345.05 K | – | – | 168.02
[1], 345.26 K | – | – | 169.24
[1], 345.47 K | – | – | 170.37
[1], 345.84 K | – | – | 171.92
[1], 345.96 K | – | – | 173.2
[2], 318.15 K | – | 1.3486 | –

COC=O [methyl methanoate]
Settings | mass density [kg/m3] | refractive index | vapor or sublimation pressure [kPa]
[1], 299.15 K | 964.78 | – | –
[1], 301.23 K | – | – | 88.7
[1], 301.42 K | – | – | 89.37
[1], 301.78 K | – | – | 90.67
[1], 302.15 K | – | – | 91.98
[1], 302.53 K | – | – | 93.31
[1], 302.89 K | – | – | 94.64
[1], 303.41 K | – | – | 95.98
[1], 303.77 K | – | – | 97.36
[1], 304.13 K | – | – | 98.69
[1], 304.44 K | – | – | 99.97
[1], 304.79 K | – | – | 101.32
[1], 304.83 K | – | – | 101.39
[1], 305.21 K | – | – | 102.89
[1], 305.51 K | – | – | 104.06
[1], 305.85 K | – | – | 105.38
[1], 306.2 K | – | – | 106.72
[1], 306.54 K | – | – | 108.06
[1], 306.84 K | – | – | 109.39
[1], 307.2 K | – | – | 110.77
[1], 307.54 K | – | – | 112.13
[1], 307.85 K | – | – | 113.44
[1], 308.13 K | – | – | 114.75
[1], 308.47 K | – | – | 116.1
[1], 308.81 K | – | – | 117.47
[1], 309.15 K | – | – | 118.77
[1], 309.43 K | – | – | 120.12
[1], 309.72 K | – | – | 121.43
[1], 310.03 K | – | – | 122.74
[1], 310.33 K | – | – | 124.08
[1], 310.64 K | – | – | 125.47
[1], 310.92 K | – | – | 126.77
[1], 311.19 K | – | – | 128.14
[1], 311.48 K | – | – | 129.44
[1], 311.78 K | – | – | 130.75
[1], 312.06 K | – | – | 132.09
[1], 312.37 K | – | – | 133.48
[1], 312.67 K | – | – | 134.81
[1], 312.9 K | – | – | 136.09
[1], 313.17 K | – | – | 137.42
[1], 313.45 K | – | – | 138.75
[1], 313.74 K | – | – | 139.83
[1], 314.01 K | – | – | 141.42
[1], 314.3 K | – | – | 142.78
[1], 314.37 K | – | – | 143.32
[1], 314.6 K | – | – | 144.13
[1], 314.63 K | – | – | 144.65
[1], 314.88 K | – | – | 145.45
[1], 314.93 K | – | – | 145.65
[1], 315.12 K | – | – | 146.74
[1], 315.18 K | – | – | 147.03
[1], 315.52 K | – | – | 148.79
[1], 315.56 K | – | – | 149.41
[1], 315.77 K | – | – | 150.23
[1], 316 K | – | – | 151.48
[1], 316.06 K | – | – | 152.08
[1], 316.23 K | – | – | 152.97
[1], 316.47 K | – | – | 154.04
[1], 316.57 K | – | – | 154.75
[1], 316.71 K | – | – | 155.22
[1], 316.95 K | – | – | 156.54
[1], 317.05 K | – | – | 157.42
[1], 317.17 K | – | – | 157.73
[1], 317.36 K | – | – | 158.92
[1], 317.4 K | – | – | 159.14
[1], 317.64 K | – | – | 160.45
[1], 317.88 K | – | – | 161.72
[1], 318 K | – | – | 162.65
[1], 318.34 K | – | – | 164.18
[1], 318.51 K | – | – | 165.32
[1], 318.68 K | – | – | 166.44
[1], 319.07 K | – | – | 168.3
[1], 319.37 K | – | – | 170
[1], 319.45 K | – | – | 170.76
[1], 319.67 K | – | – | 171.98
[1], 319.93 K | – | – | 173.32
[1], 320.22 K | – | – | 174.76
[1], 320.34 K | – | – | 175.82
[1], 320.65 K | – | – | 177.38
[1], 320.78 K | – | – | 178.57
[1], 321.04 K | – | – | 180.01
[1], 321.34 K | – | – | 181.7
[1], 321.46 K | – | – | 182.37
[1], 321.72 K | – | – | 184.02
[1], 321.94 K | – | – | 185.46
[1], 322.2 K | – | – | 186.83
[2], 299.15 K | – | 1.3402 | –
